According to patent US4743609A, “Indole derivatives having gastric and antisecretory and cytoprotective properties, and pharmaceutical preparations containing same” (Banyu Pharmaceutical Co., Ltd., priority 1985, dated 1988):
Where two headings read alike, the source gives them in different places.

Tests used:
gastric acid secretion = experiment: Gastric acid antisecretory activity (tetragastrin-stimulated secretion); type: in vivo, Donryu-strain rats; conditions: for ED50: Rattus norvegicus, iv, anaesthetized rats, tetragastrin 5 μg/kg, read-out: ED50 effective for 50% inhibition of the gastric acid secretion
Description: The bilateral vagus nerves in the cervical region of the rats were surgically cut and cannulas were inserted into the pylorus and also into the esophagus, respectively, and tied in place according to the method of Ghosh and Schild (see "Brit. J. Pharmacol." 13, 54 (1958)). Aqueous 0.9% saline solution (pH 8.5) as warmed to 40° C. was passed through the […] cannula into the stomack at a rate of 1 ml/min. for the perfusion. The pH value of the effluent coming from the pyloral cannula was measured. At the stage when the pH value of said effluent became steady, 5 μg/kg of tetragastrin, a stimulant for the gastric acid secretion, was administered through a cannula which had been inserted into the cervical vein. After the administration of tetragastrin,the decreasing change of pH value in the effluent was measured at constant intervals of time. Subsequently, a solution of the test compound in methanol was intraveously administered to the rat, and 15 minutes later tetragastrin was again administered. From the test data of the pH measurements so obtained was evaluated the ED50 value of the tested compound effective for 50% inhibition of the gastric acid secretion.

gastric mucosa = experiment: Preventing the gastric ulcer induced by ethanol-hydrochloric acid (gastric cytoprotection); type: in vivo, SD-strain rats; conditions: Rattus norvegicus, po, rats; 30 minutes before 0.2N hydrochloric acid-50% aqueous ethanol; read-out: ED50 effective for 50% inhibition to the formation of necrotic lesions
Description: Thus, according to the method of Robert et al (see "Gastroenterology" 77, 433-443 (1979)), SD-strain rats (male, weighing 200 to 220 g, 8 rats in each group) were deprived of food for 24 hours and deprived of water for 19 hours. The rats were then administered orally with a suspension of the test compound in aqueous 0.5% carboxymethylcellulose solution at a dosage of 6, 10 or 20 mg/kg of the test compound. […] One hour after the administration of the ethanolic hydrochloric acid, the rats were killed. Their stomacks were dissected out, and the lower part of the esophagus was nipped with a clip. Aqueous 1% formalin solution (12.0 ml) was poured into the stomacks from duodenum and then the duodenal part was nipped by a clip. The whole stomacks were immersed in aqueous 1% formalin solution for about 10 minutes for the fixation, the pyloric stomacks were opened along the greater curvature and then rinsed with water. The gastric mucosa was examined and the necrotic lesions or errosions as formed in the glandular stomack and in the pylorus were examined under anatomic microscope to determine the length (in mm) of the lesions. From the test results obtained by the above procedure, the ED50 value of the tested compound effective for 50% inhibition to the formation of necrotic lesions was evaluated. Omeprazole as the comparative drug was tested in the same manner as above.

rabbit gastric glands = experiment: Inhibitory effects on aminopyrine uptake into gastric glands; type: cell-based; conditions: Oryctolagus cuniculus, 0.5 h, 37° C., 30 minutes, untreated control = 100%; for activity at 100 µM: 10^-4 M test compound; for activity at 10 µM: 10^-5 M test compound; for activity at 1 µM: 10^-6 M test compound
Text: The production of gastric acid in the gastric mucosa is known to be performed by the parietal cells which are one kind of the cells constituting the gastric glands. The extent of the gastric acid secretion by the parietal cells has been deduced to be proportional to the rate of aminopyrine uptake into the gastric glands. Accordingly, the investigation of aminopyrine uptake into the gastric glands has been generally used as the indirect method for measuring the gastric acid secretion. Therefore, suspension of the rabbit gastric glands was prepared according to the method of Berglindh et al (see "Acta Physiol. Scand." 97, 401-414 (1976)). […] After this incubation, the reaction mixture obtained was centrifuged so that the gastric glands were spun down and separated from the incubation mixture. The gastric glands so collected were liophylized and the dry weight of the glands was measured. […] The so determined value of the radio-activity was assumed as the concentration or level of the aminopyrine uptaken into the gastric glands. According to the report of Berglindh et al (see "Acta Physiol. […] The radio-activity of the supernatant of the incubation mixture was determined in the same manner as above by the liquid scintillation counter, and the so determined value of the radio-activity of the supernatant was assumed to be the concentration or level of the aminopyrine present in the extraglandular water with the assumption that the so determined concentration of the aminopyrine in the supernatant was a measure of showing the quantity of the aminopyrine remaining not uptaken into gastric glands. Rate of aminopyrine uptake into gastric glands was calculated according to the following equation: [formula] The above experiment was repeated without the test compound as the Control test (untreated with test compound), and the rate of aminopyrine uptake as determined for this control test (untreated) was assumed to be 100%. The value (% of Control) was taken as showing the inhibitory effects of the test compound on the acid secretion. As a comparative drug, omeprazole was tested in the same way as above.

H^+,K^+ -ATPase = target: T1, H^+,K^+ -ATPase (Oryctolagus cuniculus, UniProt P27112); experiment: Inhibitory effects on the enzymatic activity of H^+,K^+ -ATPase; type: biochemical, rabbit
T1 construct: The rabbit gastric glands were homogenized and the microsomal fractions were prepared; from tissue; host or cells: rabbit gastric glands, light membrane fraction between 30% and 40% sucrose
Description: The rabbit gastric glands were homogenized and the microsomal fractions were prepared by differential centrifugation of the resultant homogenate. The microsomal fractions were layered on a linear continuous sucrose gradient ranging from 20 to 55% (W/V) sucrose and centrifuged to obtain the light membrane fractions sedimenting between 30% sucrose and 40% sucrose. The light membrane fractions containing the H^+,K^+ -ATPase so obtained were used to estimate the inhibitory effects of the new compound of this invention or omeprazole on the enzymatic activity of H^+,K^+ -ATPase. Test compounds were pre-incubated with the reaction mixture containing the enzyme (20-50 μg as protein) for 30 minutes at 37° C. After this, the enzymatic activity of the reaction mixture was determined by incubating for 20 minutes at 37° C. with the following reactant mixture comprising 10 mM MgCl2, 10 mM ATP disodium salt and 400 mM Tris-HCl (pH 7.3) with or without 50 mM KCl.

[1] = pre-incubated 30 minutes at 37° C., pH 7.3, with or without 50 mM KCl, read-out: IC50 value required for 50% inhibition of the enzymatic activity

T1 sequence (P27112 whole entry): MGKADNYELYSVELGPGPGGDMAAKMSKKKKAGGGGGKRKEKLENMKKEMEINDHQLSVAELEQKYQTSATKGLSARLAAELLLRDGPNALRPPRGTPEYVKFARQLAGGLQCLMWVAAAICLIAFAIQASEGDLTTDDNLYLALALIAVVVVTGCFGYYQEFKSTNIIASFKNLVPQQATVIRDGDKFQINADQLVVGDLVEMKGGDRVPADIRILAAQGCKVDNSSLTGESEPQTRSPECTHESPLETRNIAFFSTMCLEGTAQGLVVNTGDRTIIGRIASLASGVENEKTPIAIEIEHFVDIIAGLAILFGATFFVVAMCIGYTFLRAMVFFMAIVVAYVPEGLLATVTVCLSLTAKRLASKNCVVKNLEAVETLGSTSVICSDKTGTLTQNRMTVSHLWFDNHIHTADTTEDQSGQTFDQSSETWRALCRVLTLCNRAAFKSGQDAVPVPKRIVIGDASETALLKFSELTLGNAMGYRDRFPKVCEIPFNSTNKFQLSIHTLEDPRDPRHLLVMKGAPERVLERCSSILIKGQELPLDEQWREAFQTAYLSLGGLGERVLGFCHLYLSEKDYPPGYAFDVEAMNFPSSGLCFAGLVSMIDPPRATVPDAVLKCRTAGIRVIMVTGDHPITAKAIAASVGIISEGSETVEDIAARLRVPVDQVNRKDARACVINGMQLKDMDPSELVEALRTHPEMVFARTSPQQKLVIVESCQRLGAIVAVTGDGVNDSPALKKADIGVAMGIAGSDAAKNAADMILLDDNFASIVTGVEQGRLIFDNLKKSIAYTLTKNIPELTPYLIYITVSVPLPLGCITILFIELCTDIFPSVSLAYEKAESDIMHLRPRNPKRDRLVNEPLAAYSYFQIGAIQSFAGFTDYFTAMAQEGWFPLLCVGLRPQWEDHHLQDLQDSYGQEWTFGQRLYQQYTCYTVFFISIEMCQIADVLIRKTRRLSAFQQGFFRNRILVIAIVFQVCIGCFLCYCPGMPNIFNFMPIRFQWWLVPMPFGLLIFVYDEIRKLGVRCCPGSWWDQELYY
T1 sequence (P18597 whole entry partner): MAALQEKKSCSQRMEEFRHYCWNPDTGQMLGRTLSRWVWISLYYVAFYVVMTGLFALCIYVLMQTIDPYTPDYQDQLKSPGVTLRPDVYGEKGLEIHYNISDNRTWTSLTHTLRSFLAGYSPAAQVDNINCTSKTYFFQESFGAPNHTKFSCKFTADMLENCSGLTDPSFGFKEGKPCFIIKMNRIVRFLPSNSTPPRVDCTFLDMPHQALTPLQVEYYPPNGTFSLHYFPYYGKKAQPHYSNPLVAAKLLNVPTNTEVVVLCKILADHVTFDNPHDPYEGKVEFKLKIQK

IC50 (H^+,K^+ -ATPase) [µM] | H^+,K^+ -ATPase inhibition (in words) (H^+,K^+ -ATPase) | IC50 (H^+,K^+ -ATPase; [1]) [µM] | SMILES | ED50 (gastric acid secretion) [mg/kg] | ED50 (gastric mucosa) [mg/kg] | activity at 100 µM (rabbit gastric glands) [%] | activity at 10 µM (rabbit gastric glands) [%] | activity at 1 µM (rabbit gastric glands) [%] | gastric acid antisecretory activity (in words) (gastric acid secretion; rat, in vivo)
9.4 |  |  | COc1ccc2nc([S+]([O-])Cc3ncc(C)c(OC)c3C)[nH]c2c1 (centres unmarked) [Omeprazole, 2-[(3,5-dimethyl-4-methoxy-2-pyridyl)methylsulfinyl]-5-methoxybenzimidazole, reference compound] | 0.24 | 34.1 | 18 | 25 | 34 | 
 |  |  | Cc1cnc(CSc2cc3cc(C(F)(F)F)ccc3[nH]2)cc1N1CCCCC1 [Example 7, 5-trifluoromethyl-2-[(5-methyl-4-piperidino-2-pyridyl)methylthio]indole] |  | 9.77 | 14 | 17 | 55 | 
 |  |  | Cc1cnc(CSc2cc3ccccc3n2C)cc1N1CCCCC1 [Example 4, 1-methyl-2-[(5-methyl-4-piperidino-2-pyridyl)methylthio]indole] |  |  | 7 | 8 | 50 | 
 |  |  | Cc1cnc(C[S+]([O-])c2cc3ccccc3[nH]2)cc1N1CCCCC1 (centres unmarked) [Example 3, 2-[(5-methyl-4-piperidino-2-pyridyl)methylsulfinyl]indole] |  |  | 54 | 64 | 99 | 
 |  |  | Cc1ccc2[nH]c(SCc3cc(N4CCCCC4)c(C)cn3)cc2c1 [Example 5, 5-methyl-2-[(5-methyl-4-piperidino-2-pyridyl)methylthio]indole] |  | 8.59 | 11 | 18 | 56 | 
 |  |  | CN(C)c1ccnc(CSc2c[nH]c3ccccc23)c1 [Example 2, 3-[(4-dimethylamino-2-pyridyl)methylthio]indole] |  |  | 24 | 72 | 111 | 
 |  |  | CCOC(=O)c1ccnc(CSc2c[nH]c3ccccc23)c1 [Example 38, 3-[(4-ethoxycarbonyl-2-pyridyl)methylthio]indole] |  |  | 141 | 103 | 120 | 
 |  |  | Cc1c(N2CCCCC2)ccnc1CSc1cc2ccccc2[nH]1 [Example 10, 2-[(3-methyl-4-piperidino-2-pyridyl)methylthio]indole] |  |  | 4 | 19 | 71 | 
 | H^+,K^+ -ATPase inhibitors | 50 | Cc1cnc(CSc2cc3ccccc3[nH]2)cc1N1CCCCC1 [Example 1, 2-[(5-methyl-4-piperidino-2-pyridyl)methylthio]indole] | 7.58 | 11.5 | 7 | 14 | 44 | remarkedly milder than that of opeprazole
 |  |  | Cc1cnc(CSc2cc3ccccc3[nH]2)cc1N1CCOCC1 [Example 11, 2-[(5-methyl-4-morpholino-2-pyridyl)methylthio]indole] |  |  | 3 | 56 | 106 | 
 |  |  | CCOC(=O)c1ccc2[nH]c(SCc3cc(N4CCCCC4)c(C)cn3)cc2c1 [Example 9, 5-ethoxycarbonyl-2-[(5-methyl-4-piperidino-2-pyridyl)methylthio]indole] |  |  | 15 | 20 | 61 | 
 |  |  | COc1ccc2[nH]c(SCc3cc(N4CCCCC4)c(C)cn3)cc2c1 [Example 21, 5-methoxy-2-[(5-methyl-4-piperidino-2-pyridyl)methylthio]indole] |  | 14.6 |  |  |  | 
 |  |  | Cc1cnc(CSc2c[nH]c3ccccc23)cc1N1CCCCC1 [Example 40, 3-[(5-methyl-4-piperidino-2-pyridyl)methylthio]indole] |  | 2.84 |  |  |  | 
 |  |  | Cc1cnc(CSc2cc3cc(F)ccc3[nH]2)cc1N1CCCCC1 [Example 6, 5-fluoro-2-[(5-methyl-4-piperidino-2-pyridyl)methylthio]indole] |  | 12.7 | 14 | 76 | 48 | 
 |  |  | Oc1ccnc(CSc2c[nH]c3ccccc23)c1 [Example 39, 3-[(4-hydroxy-2-pyridyl)methylthio]indole] |  |  | 105 | 109 | 120 | 
 | H^+,K^+ -ATPase inhibitors | 700 | CN(C)c1ccnc(CSc2cc3ccccc3[nH]2)c1 [Example 13, 2-[(4-Dimethylamino-2-pyridyl)methylthio]indole] |  | 9.17 | 3 | 48 | 118 | 
 |  |  | Cc1cnc(CSc2cc3ccccc3[nH]2)cc1N1CCCC1 [Example 12, 2-[(5-methyl-4-pyrrolidino-2-pyridyl)methylthio]indole] |  |  | 10 | 11 | 48 | 
 |  |  | Clc1ccnc(CSc2c[nH]c3ccccc23)c1 [Example 37, 3-[(4-chloro-2-pyridyl)methylthio]indole] |  |  | 95 | 105 | 114 | 
 |  |  | c1ccc2[nH]c(SCc3cc(N4CCCCC4)ccn3)cc2c1 [Example 22, 2-[(4-piperidino-2-pyridyl)methylthio]indole] |  | 8.13 |  |  |  | 
